Here are results for 26 compounds from US9771381B2, “Derivatives of 1-amino-2-cyclobutylethylboronic acid” (Millennium Pharmaceuticals, Inc., priority 2008, dated 2017).

Each structure is given as a SMILES string. pIC50: −log10 of the molar value. Some results are limits rather than exact numbers.

The test has as its target T1, human 20S proteasome (Homo sapiens, UniProt P28074).
T1 construct: purchased Boston Biochem
Briefly: 20S Proteasome Assay. It counts as biochemical. The conditions noted are these: Ac-WLA-AMC substrate 15 μM, human PA28 activator 12 nM, human 20S proteasome 0.25 nM, 37° C., pH7.4.
For `O=C(N[C@@H](Cc1ccccc1)C(=O)N[C@@H](CC1CCC1)B(O)O)c1ccc(O)c(CN2CCOCC2)c1` [Compound 3, {(1R)-2-cyclobutyl-1-[((2S)-2-{[4-hydroxy-3-(morpholin-4-ylmethyl)benzoyl]amino}-3-phenylpropanoyl)amino]ethyl}boronic acid], the pIC50 was > 7.30. To `Cc1nc(-c2cccc(S(=O)(=O)N[C@@H](Cc3ccccc3)C(=O)N[C@@H](CC3CCC3)B(O)O)c2)cs1` [Compound 44, ((1R)-2-cyclobutyl-1-{[(2S)-2-({[3-(2-methyl-1,3-thiazol-4-yl)phenyl]sulfonyl}amino)-3-phenylpropanoyl]amino}ethyl)boronic acid] belongs > 7.30.

With `CC1(C)[C@@H]2C[C@H]3OB([C@H](CC4CCC4)NC(=O)[C@H](Cc4ccccc4)NC(=O)c4cccnc4Oc4ccccc4)O[C@@]3(C)[C@H]1C2` [Compound 9, N-[(1S)-1-benzyl-2-({(1R)-2-cyclobutyl-1-[(3aS,4S,6S,7aR)-3a,5,5-trimethylhexahydro-4,6-methano-1,3,2-benzodioxaborol-2-yl]ethyl}amino)-2-oxoethyl]-2-phenoxynicotinamide], the pIC50 is > 7.30. For the compound `O=C(N[C@@H](CC1CCC1)B(O)O)[C@H](Cc1ccccc1)NS(=O)(=O)c1cc(F)ccc1F` [Compound 38, {(1R)-2-cyclobutyl-1-[((2S)-2-{[(2,5-difluorophenyl)sulfonyl]amino}-3-phenylpropanoyl)amino]ethyl}boronic acid], the pIC50 is > 7.30. In the case of `CN1CCOc2cc(S(=O)(=O)N[C@@H](Cc3ccccc3)C(=O)N[C@@H](CC3CCC3)B3O[C@@H]4C[C@@H]5C[C@@H](C5(C)C)[C@]4(C)O3)ccc21` [Compound 8, (2S)-N-{(1R)-2-cyclobutyl-1-[(3aS,4S,6S,7aR)-3a,5,5-trimethylhexahydro-4,6-methano-1,3,2-benzodioxaborol-2-yl]ethyl}-2-{[(4-methyl-3,4-dihydro-2H-1,4-benzoxazin-7-yl)sulfonyl]amino}-3-phenylpropanamide], the negative logarithm of the IC50 (pIC50) was > 7.30.

`CN1CCOc2ccc(C(=O)N[C@@H](Cc3ccccc3)C(=O)N[C@@H](CC3CCC3)B(O)O)cc21` [Compound 37, {(1R)-2-cyclobutyl-1-[((2S)-2-{[(4-methyl-3,4-dihydro-2H-1,4-benzoxazin-6-yl)carbonyl]amino}-3-phenylpropanoyl)amino]ethyl}boronic acid]: the pIC50 was > 7.30. To `O=C(N[C@@H](CC1CCC1)B(O)O)[C@H](Cc1ccccc1)NC(=O)[C@H](CCc1ccccc1)NS(=O)(=O)Cc1ccccc1` [Compound 4, [(1R,4S,7S)-4-benzyl-1-(cyclobutylmethyl)-9,9-dioxido-3,6-dioxo-10-phenyl-7-(2-phenylethyl)-9-thia-2,5,8-triazadec-1-yl]boronic acid] belongs > 7.30; to `CC1(C)[C@@H]2C[C@H]3OB([C@H](CC4CCC4)NC(=O)[C@H](Cc4ccccc4)NC(=O)c4ccc(O)c(CN5CCOCC5)c4)O[C@@]3(C)[C@H]1C2` [Compound 10, N-[(1S)-1-benzyl-2-({(1R)-2-cyclobutyl-1-[(3aS,4S,6S,7aR)-3a,5,5-trimethylhexahydro-4,6-methano-1,3,2-benzodioxaborol-2-yl]ethyl}amino)-2-oxoethyl]-4-hydroxy-3-(morpholin-4-ylmethyl)benzamide], 6.82 to 7.30; to `CC(=O)N[C@@H](CCc1ccccc1)C(=O)N[C@@H](Cc1ccccc1)C(=O)N[C@@H](CC1CCC1)B(O)O` [Compound 22, {(1R)-1-[((2S)-2-{[(2S)-2-(acetylamino)-4-phenylbutanoyl]amino}-3-phenylpropanoyl)amino]-2-cyclobutylethyl}boronic acid], > 7.30. Regarding `CC1(C)[C@@H]2C[C@H]3OB([C@H](CC4CCC4)NC(=O)[C@H](Cc4ccccc4)NC(=O)c4cccc(Oc5ccccc5)c4)O[C@@]3(C)[C@H]1C2` [Compound 13], the pIC50 is > 7.30. To `O=C(N[C@@H](Cc1ccccc1)C(=O)N[C@@H](CC1CCC1)B(O)O)c1cccnc1Nc1cccc(C(F)(F)F)c1` [Compound 23, {(1R)-2-cyclobutyl-1-[((2S)-3-phenyl-2-{[(2-{[3-(trifluoromethyl)phenyl]amino}pyridin-3-yl)carbonyl]amino}propanoyl)amino]ethyl}boronic acid] belongs > 7.30. To `O=C(c1cccc(S(=O)(=O)N[C@@H](Cc2ccccc2)C(=O)N[C@@H](CC2CCC2)B(O)O)c1)c1ccccn1` [Compound 29, ((1R)-2-cyclobutyl-1-{[(2S)-3-phenyl-2-({[3-(pyridin-2-ylcarbonyl)phenyl]sulfonyl}amino)propanoyl]amino}eth-yl)boronic acid] belongs > 7.30; to `CC1(C)[C@@H]2C[C@H]3OB([C@H](CC4CCC4)NC(=O)[C@H](Cc4ccccc4)NC(=O)[C@H](CCc4ccccc4)NS(=O)(=O)Cc4ccccc4)O[C@@]3(C)[C@H]1C2` [Compound 21, (2S)-N-[(1S)-1-benzyl-2-({(1R)-2-cyclobutyl-1-[(3aS,4S,6S,7aR)-3a,5,5-trimethylhexahydro-4,6-methano-1,3,2-benzodioxaborol-2-yl]ethyl}amino)-2-oxoethyl]-2-[(benzylsulfonyl)amino]-4-phenylbutanamide], > 7.30; to `O=C1COc2cc(S(=O)(=O)N[C@@H](Cc3ccccc3)C(=O)N[C@@H](CC3CCC3)B(O)O)c(Cl)cc2N1` [Compound 32, {(1R)-1-[((2S)-2-{[(6-chloro-3-oxo-3,4-dihydro-2H-1,4-benzoxazin-7-yl)sulfonyl]amino}-3-phenylpropanoyl)amino]-2-cyclobutylethyl}boronic acid], > 7.30.

As to `O=C(N[C@@H](Cc1ccccc1)C(=O)N[C@@H](CC1CCC1)B(O)O)c1ccc(Oc2ccccc2)nc1` [Compound 39, {(1R)-2-cyclobutyl-1-[((2S)-2-{[(6-phenoxypyridin-3-yl)carbonyl]amino}-3-phenylpropanoyl)amino]ethyl}boronic acid], the pIC50 is > 7.30. As to `CN1C(=O)Cc2cc(S(=O)(=O)N[C@@H](Cc3ccccc3)C(=O)N[C@@H](CC3CCC3)B(O)O)ccc21` [Compound 40, {(1R)-2-cyclobutyl-1-[((2S)-2-{[(1-methyl-2-oxo-2,3-dihydro-1H-indol-5-yl)sulfonyl]amino}-3-phenylpropanoyl)amino]ethyl}boronic acid], the pIC50 was > 7.30. To `CC1(C)[C@@H]2C[C@H]3OB([C@H](CC4CCC4)NC(=O)[C@H](Cc4ccccc4)NS(=O)(=O)c4ccc5ccccc5c4)O[C@@]3(C)[C@H]1C2` [Compound 12, (2S)-N-{(1R)-2-cyclobutyl-1-[(3aS,4S,6S,7aR)-3a,5,5-trimethylhexahydro-4,6-methano-1,3,2-benzodioxaborol-2-yl]ethyl}-2-[(2-naphthylsulfonyl)amino]-3-phenylpropanamide] belongs > 7.30; to `CC1(C)[C@@H]2C[C@H]3OB([C@H](CC4CCC4)NC(=O)[C@H](Cc4ccccc4)NC(=O)c4cccnc4Nc4cccc(C(F)(F)F)c4)O[C@@]3(C)[C@H]1C2` [Compound 19, N-[(1S)-1-benzyl-2-({(1R)-2-cyclobutyl-1-[(3aS,4S,6S,7aR)-3a,5,5-trimethylhexahydro-4,6-methano-1,3,2-benzodioxaborol-2-yl]ethyl}amino)-2-oxoethyl]-2-{[3-(trifluoromethyl)phenyl]amino}nicotinamide], > 7.30.

Take `CC1(C)[C@@H]2C[C@H]3OB([C@H](CC4CCC4)NC(=O)[C@H](Cc4ccccc4)NC(=O)c4cc(Cl)ccc4Cl)O[C@@]3(C)[C@H]1C2` [Compound 5, N-[(1S)-1-benzyl-2-({(1R)-2-cyclobutyl-1-[(3aS,4S,6S,7aR)-3a,5,5-trimethylhexahydro-4,6-methano-1,3,2-benzodioxaborol-2-yl]ethyl}amino)-2-oxoethyl]-2,5-dichlorobenzamide]: the pIC50 is > 7.30.

For the compound `CC1(C)[C@@H]2C[C@H]3OB([C@H](CC4CCC4)NC(=O)[C@H](Cc4ccccc4)NC(=O)c4ccc5[nH]c(-c6ccccc6)nc5c4)O[C@@]3(C)[C@H]1C2` [Compound 14], the pIC50 was > 7.30. For `Cn1ccc2c(S(=O)(=O)N[C@@H](Cc3ccccc3)C(=O)N[C@@H](CC3CCC3)B(O)O)cccc21` [Compound 30, {(1R)-2-cyclobutyl-1-[((2S)-2-{[(1-methyl-1H-indol-4-yl)sulfonyl]amino}-3-phenylpropanoyl)amino]ethyl}boronic acid], the pIC50 was > 7.30. To `C[C@H](O)[C@H](NS(=O)(=O)c1ccc2c(c1)N(C)CCO2)C(=O)N[C@@H](CC1CCC1)B(O)O` [Compound 46, {(1R)-2-cyclobutyl-1-[((2S)-3-hydroxy-2-{[(4-methyl-3,4-dihydro-2H-1,4-benzoxazin-6-yl)sulfonyl]amino}butanoyl)amino]ethyl}boronic acid] belongs 6.82 to 7.30; to `C[C@H](O)[C@H](NS(=O)(=O)c1ccc(Oc2ccccc2)nc1)C(=O)N[C@@H](CC1CCC1)B(O)O` [Compound 42, {(1R)-2-cyclobutyl-1-[((2S)-3-hydroxy-2-{[(6-phenoxypyridin-3-yl)sulfonyl]amino}butanoyl)amino]ethyl}boronic acid], 6.82 to 7.30; to `O=C(N[C@@H](CC1CCC1)B(O)O)[C@H](Cc1ccccc1)NS(=O)(=O)c1ccc(N2CCOCC2)nc1` [Compound 31, {(1R)-2-cyclobutyl-1-[((2S)-2-{[(6-morpholin-4-ylpyridin-3-yl)sulfonyl]amino}-3-phenylpropanoyl)amino]ethyl}boronic acid], > 7.30. In the case of `O=C(N[C@@H](CC1CCC1)B(O)O)[C@H](Cc1ccccc1)NS(=O)(=O)c1cccc(Oc2ccc(C(F)(F)F)cn2)c1` [Compound 34, {(1R)-2-cyclobutyl-1-[((2S)-3-phenyl-2-{[(3-{[5-(trifluoromethyl)pyridin-2-yl]oxy}phenyl)sulfonyl]amino}pro-panoyl)amino]ethyl}boronic acid], the pIC50 is > 7.30. For `O=C(N[C@@H](CC1CCC1)B(O)O)[C@H](Cc1ccccc1)NS(=O)(=O)c1ccc(Oc2ccccc2)nc1` [Compound 11, {(1R)-2-cyclobutyl-1-[((2S)-2-{[(6-phenoxypyridin-3-yl)sulfonyl]amino}-3-phenylpropanoyl)amino]ethyl}boronic acid], the pIC50 is > 7.30.

The term pIC50 denotes the negative decadic logarithm of the IC50, by convention in mol/L.
